# Source: patent US9371345B2, “Metathesis catalysts containing onium groups” (Apeiron Synthesis S.A., priority 2012, dated 2016)
# Experiment: Solubility of the complex in water and alcohols
# Format: physicochemical
# Details: methanol, ethanol, water/alcohol mixture
row,Structure (SMILES),"Solubility in methanol, ethanol and water/alcohol mixture, in words"
1,CC(C)c1cccc(C(C)C)c1N1CCN(c2c(C(C)C)cccc2C(C)C)[CH]1[Ru]([Cl])([Cl])=[CH]c1ccccc1OC1CC[N+](C)(C)CC1 [Complex 48],excellent solubility

# Same assay, conditions: neat / pure water
row,Structure (SMILES),"Solubility in water, in words"
1,CC(C)c1cccc(C(C)C)c1N1CCN(c2c(C(C)C)cccc2C(C)C)[CH]1[Ru]([Cl])([Cl])=[CH]c1ccccc1OC1CC[N+](C)(C)CC1 [Complex 48],Insoluble

# Same assay, conditions: water
row,Structure (SMILES),Water solubility [µg/mL]
1,Cc1cc(C)c(N2CC(C[N+](C)(C)C)N(c3c(C)cc(C)cc3C)[CH]2[Ru]([Cl])([Cl])=[CH]c2cc([N+](=O)[O-])ccc2OC(C)C)c(C)c1 (stereo not drawn) [Complex 50],3000
2,Cc1cc(C)c(N2CC(C[N+](C)(C)C)N(c3c(C)cc(C)cc3C)[CH]2[Ru]([Cl])([Cl])=[CH]c2ccccc2OC2CC[N+](C)(C)CC2)c(C)c1 (stereo not drawn) [Complex 51],35000
3,CC[N+]1(C)CCN(CC2CN(c3c(C)cc(C)cc3C)[CH]([Ru]([Cl])([Cl])=[CH]c3ccccc3OC(C)C)N2c2c(C)cc(C)cc2C)CC1 (stereo not drawn) [Complex 52],3000
4,CC[N+]1(C)CCN(CC2CN(c3c(C)cc(C)cc3C)[CH]([Ru]([Cl])([Cl])=[CH]c3ccccc3OC3CC[N+](C)(C)CC3)N2c2c(C)cc(C)cc2C)CC1 (stereo not drawn) [Complex 53],35000
5,CC(C)Oc1ccccc1[CH]=[Ru]([Cl])([Cl])[CH]1N(c2c(C(C)C)cc(C[N+]3(C)CCOCC3)cc2C(C)C)CCN1c1c(C(C)C)cc(C[N+]2(C)CCOCC2)cc1C(C)C [Complex 54],2000
6,CC(C)c1cc(C[N+]2(C)CCOCC2)cc(C(C)C)c1N1CCN(c2c(C(C)C)cc(C[N+]3(C)CCOCC3)cc2C(C)C)[CH]1[Ru]([Cl])([Cl])=[CH]c1ccccc1OC1CC[N+](C)(C)CC1 [Complex 55],65000
7,Cc1cc(C)c(N2CCN(c3c(C)cc(C)cc3C)[CH]2[Ru]([Cl])([Cl])=[CH]c2cc([N+](C)(C)C)ccc2OC(C)C)c(C)c1 [Complex 56],1000
